Data reported in paper PMC11413854, “Reversible Control of Native GluN2B-Containing NMDA Receptors with Visible Light” (ACS Chemical Neuroscience, 2024).
Entries after “also recorded” stand apart in the source; their conditions may differ. Read-outs that look alike come from different tables or passages of the source. Blank lines part the entries; values can stand above or below the compound they belong to.

Target: T1, GluN1/GluN2B NMDA receptors (UniProt P35439+Q01097)
T1 construct: expressed in transfected cells; host or cells: Xenopus laevis oocytes (nuclear cDNA injection)
Test: TEVC electrophysiology on Xenopus oocytes expressing wt GluN1/GluN2B NMDARs
Type: cell-based, rat GluN1, mouse GluN2B
Details: for remaining activity at 1 µM / remaining activity at 5 µM / remaining activity at 10 µM / remaining activity at 25 µM / remaining activity at 50 µM / remaining activity at 90 µM / remaining activity at 100 µM / remaining activity at 0.01 µM / remaining activity at 0.025 µM / remaining activity at 0.05 µM / remaining activity at 0.1 µM / remaining activity at 0.15 µM / remaining activity at 2 µM / remaining activity at 7.5 µM / remaining activity at 70 µM: GluN1/GluN2B wt, read-out: Relative current (IOpto/I0); for UV/dark IC50 ratio (365 nm PSS vs dark): preilluminated in solution; for shift in IC50 compared to parent compound: trans configuration (dark); for remaining activity at 0.01 µM: 0.010 µM; for remaining activity at 0.05 µM: 0.050 µM; for remaining activity at 0.1 µM: 0.100 µM; for remaining activity at 0.15 µM: 0.150 µM
Description: The activity of OptoNAM-3 was functionally monitored by electrophysiology on Xenopus oocytes (see Methods). To assess the light-dependent effect, we tested the activities of the dark PSS (mostly trans) and the UV PSS (mostly cis, see above) separately. For each concentration, we prepared a solution divided into two samples: one in which the compound was kept in the dark for the duration of the experiment (dark PSS state); and the other that was preilluminated with either 350 or 365 nm light (350 or 365 nm PSS) and then kept away from the light for the duration of the experiment in order to avoid photoisomerization of the compounds by ambient light (see Methods). […] We generated dose–response curves of OptoNAM-3 dark and UV PSS on wild-type (wt) GluN1/GluN2B NMDA receptors (Figure 3A) in the presence of saturating concentrations of agonists (100 μM glutamate and glycine).
We used cDNA coding for rat GluN1–1a (named GluN1 herein) (GenBank: U08261.1), rat GluN2A (GenBank: D13211.1), mouse GluN2B (GenBank: D10651.2), rat GluA1 flop (GenBank: M36418.2), and rat Myc-GluA2(Q)-flip (GenBank: AF164344.1) cloned into pcDNA3-based expression plasmids. GluK2 (GenBank: Z11548.1) corresponds to the fully RNA-edited version.[80] The GluN2B-ΔNTD construct is from ref[45] and GluN2B–N615K is from ref[81]. Single mutants GluN2B-Q110G and GluN1-L135H were from ref[19]. The GluA2 cDNA contains a Myc tag ([…]) fused between the signal peptide and the N-terminus sequences, and the GluA2 subunit is […] for its Q/R/N site (GluA2(Q)) to allow permeation of homomeric GluA2 receptors.[2] cDNAs coding for rat GluN2C (GenBank: M91563.1) and GluN2D subunits (GenBank: L31611.1) were in prK5 plasmids.
Oocytes from Xenopus laevis were used for heterologous expression of recombinant NMDA receptors studied using a two-electrode voltage clamp (TEVC). Female Xenopus laevis were housed and ovary bags harvested according to the European Union guidelines (husbandry authorizations #C75–05–31 and #D75–05–31; project authorizations #05137.02; and Apafis #28867–2020121814485893). Fragments of ovary bags were also purchased from the “Centre de Ressources Biologiques Xenopes” (now TEFOR, Paris Saclay, France) and from the European Xenopus Resource Center (EXRC, Portsmouth, UK). Xenopus laevis oocytes were harvested and prepared as previously described in ref[82].
Expression of recombinant NMDA receptors was obtained by oocyte nuclear coinjection of 37 nL of a mixture of cDNAs (at 30 ng/μL) coding for GluN1–1a and various GluN2 subunits (ratio 1:1). The protocol in ref[43] was followed for the expression of GluN1/GluN2A/GluN2B triheteromers. The oocytes were transferred in 96-well plates filled with Barth solution (in mM: 88 NaCl, 1 KCl, 0.33 Ca(NO3)2, 0.41 CaCl2, 0.82 MgSO4, 2.4 NaHCO3, and 7.5 HEPES, pH adjusted to 7.3 with NaOH), supplemented with gentamicin ([…]) and 50 μM APV, a selective NMDA receptor antagonist. Plates were then stored at 18 °C for 24 h for GluN1/GluN2A expression and for 48––72 h for the expression of GluN1/Glu2B, GluN1/GluN2A/GluN2B, and mutants.
TEVC recordings were performed 1–3 days following injection. TEVC recordings were performed using an Oocyte Clamp amplifier OC-725 (Warner Instruments) and computer-controlled via a 1440A Digidata (Molecular Devices). Currents were sampled at 100 Hz and low-pass-filtered at 20 Hz using an 8-pole Bessel filter (900 Series, Frequency Devices Inc.).

[1] = 365 nm PSS, 100 µM glutamate + glycine, Xenopus oocytes, read-out: IC50 on GluN1/GluN2B receptors, preilluminated with 365 nm
[2] = Sup. Fig. 2G, trans isomer, source: this paper, read-out: activity (Ki or IC50)

T1 sequence (Q01097 27-1482, other chains not shown): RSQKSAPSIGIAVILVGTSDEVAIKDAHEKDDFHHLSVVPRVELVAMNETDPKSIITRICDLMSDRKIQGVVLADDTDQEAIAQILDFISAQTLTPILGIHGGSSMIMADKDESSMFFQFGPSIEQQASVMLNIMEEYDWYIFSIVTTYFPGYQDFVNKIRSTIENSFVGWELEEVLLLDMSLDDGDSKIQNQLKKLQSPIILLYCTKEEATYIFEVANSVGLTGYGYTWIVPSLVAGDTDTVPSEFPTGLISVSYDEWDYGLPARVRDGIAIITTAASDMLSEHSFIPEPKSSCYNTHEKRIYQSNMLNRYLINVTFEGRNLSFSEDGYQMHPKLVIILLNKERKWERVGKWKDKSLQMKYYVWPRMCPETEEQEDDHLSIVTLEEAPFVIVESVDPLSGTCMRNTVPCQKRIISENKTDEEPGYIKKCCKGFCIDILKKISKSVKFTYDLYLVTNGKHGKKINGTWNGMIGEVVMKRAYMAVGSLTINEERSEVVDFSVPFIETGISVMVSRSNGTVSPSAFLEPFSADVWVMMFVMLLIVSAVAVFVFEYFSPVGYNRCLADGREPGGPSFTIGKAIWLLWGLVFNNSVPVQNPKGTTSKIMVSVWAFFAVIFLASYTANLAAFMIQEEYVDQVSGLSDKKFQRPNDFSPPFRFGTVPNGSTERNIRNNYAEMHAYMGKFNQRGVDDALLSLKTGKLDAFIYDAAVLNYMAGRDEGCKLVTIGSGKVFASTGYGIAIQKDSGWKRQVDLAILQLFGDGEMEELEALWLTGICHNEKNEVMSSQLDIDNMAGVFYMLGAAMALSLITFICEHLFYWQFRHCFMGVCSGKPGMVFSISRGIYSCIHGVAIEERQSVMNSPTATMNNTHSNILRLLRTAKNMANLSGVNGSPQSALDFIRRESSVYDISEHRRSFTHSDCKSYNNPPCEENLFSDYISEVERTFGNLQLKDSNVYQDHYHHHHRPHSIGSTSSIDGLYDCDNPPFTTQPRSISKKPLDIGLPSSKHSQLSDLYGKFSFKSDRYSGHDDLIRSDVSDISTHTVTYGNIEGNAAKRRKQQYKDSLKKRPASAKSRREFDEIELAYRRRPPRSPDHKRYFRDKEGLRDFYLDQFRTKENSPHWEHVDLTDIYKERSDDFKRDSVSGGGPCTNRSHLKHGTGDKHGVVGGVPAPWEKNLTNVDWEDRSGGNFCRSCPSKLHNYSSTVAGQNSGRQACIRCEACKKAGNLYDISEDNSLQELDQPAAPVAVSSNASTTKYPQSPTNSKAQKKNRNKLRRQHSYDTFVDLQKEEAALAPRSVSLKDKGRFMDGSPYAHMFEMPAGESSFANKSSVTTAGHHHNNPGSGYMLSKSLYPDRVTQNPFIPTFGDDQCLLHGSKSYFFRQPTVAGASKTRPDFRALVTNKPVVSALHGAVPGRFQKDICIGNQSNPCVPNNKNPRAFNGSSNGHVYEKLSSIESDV

- IC50 [1]: 117 ± 10 µM
- remaining activity at 1 µM (365 nm PSS): 94.5%
- remaining activity at 5 µM (365 nm PSS): 92.7%
- remaining activity at 10 µM (365 nm PSS): 90%
- remaining activity at 25 µM (365 nm PSS): 84.2%
- remaining activity at 50 µM (365 nm PSS): 63.5%
- remaining activity at 90 µM (365 nm PSS): 50%
- remaining activity at 100 µM (365 nm PSS): 49.3%
- remaining activity at 1 µM (dark PSS (trans)): 92.5%
- remaining activity at 5 µM (dark PSS (trans)): 84.8%
- remaining activity at 10 µM (dark PSS (trans)): 75.5%
- remaining activity at 25 µM (dark PSS (trans)): 47.3%
- remaining activity at 50 µM (dark PSS (trans)): 31.1%
- remaining activity at 90 µM (dark PSS (trans)): 22.1%
- remaining activity at 100 µM (dark PSS (trans)): 14.4%
- IC50 [2]: 24 µM
- UV/dark IC50 ratio (365 nm PSS vs dark) (Xenopus oocytes): 4.9 fold
- shift in IC50 compared to parent compound: > 1000 fold
Structure (SMILES): Cc1cc(N)nc(/N=N/c2ccccc2)c1 [OptoNAM-2, (E)-4-methyl-6-(phenyldiazenyl)pyridin-2-amine]

- IC50 (365 nm PSS, Xenopus oocytes, read-out: IC50 on GluN1/GluN2B receptors, pre-illuminated with 365 nm): 0.031 ± 0.029 µM
- remaining activity at 0.01 µM (365 nm PSS): 69.6%
- remaining activity at 0.025 µM (365 nm PSS): 50.1%
- remaining activity at 0.05 µM (365 nm PSS): 44.8%
- remaining activity at 0.1 µM (365 nm PSS): 34%
- remaining activity at 0.15 µM (365 nm PSS): 21%
- remaining activity at 0.01 µM (dark PSS (trans)): 68.3%
- remaining activity at 0.025 µM (dark PSS (trans)): 45.6%
- remaining activity at 0.05 µM (dark PSS (trans)): 39%
- remaining activity at 0.1 µM (dark PSS (trans)): 29.7%
- remaining activity at 0.15 µM (dark PSS (trans)): 15%
- IC50 (dark PSS (trans), Xenopus oocytes, read-out: IC50 on GluN1/GluN2B receptors in the dark): 0.024 ± 0.026 µM
- UV/dark IC50 ratio (365 nm PSS vs dark) (Xenopus oocytes): 1.3 fold
Structure (SMILES): CS(=O)(=O)Nc1ccc2nc(Cc3ccc(/N=N/c4ccccc4)cc3)[nH]c2c1 [OptoNAM-4, (E)-N-(2-(4-(phenyldiazenyl)benzyl)-1H-benzo[d]imidazol-6-yl)methanesulfonamide]
- photodependence of activity on GluN1/GluN2B NMDARs (dark vs 365 nm PSS): not photodependent; also recorded: did not display any photodependence of activity

- IC50 [1]: 37 ± 2 µM
- remaining activity at 2 µM (365 nm PSS): 91.1%
- remaining activity at 7.5 µM (365 nm PSS): 81.8%
- remaining activity at 10 µM (365 nm PSS): 78%
- remaining activity at 25 µM (365 nm PSS): 58.1%
- remaining activity at 70 µM (365 nm PSS): 35%
- remaining activity at 2 µM (dark PSS (trans)): 83.8%
- remaining activity at 7.5 µM (dark PSS (trans)): 66.1%
- remaining activity at 10 µM (dark PSS (trans)): 49.9%
- remaining activity at 25 µM (dark PSS (trans)): 28.4%
- remaining activity at 70 µM (dark PSS (trans)): 13.4%
- IC50 [2]: 11 µM
- UV/dark IC50 ratio (365 nm PSS vs dark) (Xenopus oocytes): 3.4 fold
- shift in IC50 compared to parent compound: > 1000 fold
Structure (SMILES): Nc1ccnc(/N=N/c2ccccc2)c1 [OptoNAM-1, (E)-2-(phenyldiazenyl)pyridin-4-amine]
